Test system: chaetomium spore
Assay: Sterilizing power test (D value) against chaetomium spores
Type: cell-based
Conditions: 40° C.; chaetomium spore solution 4×10^6 CFU/ml; peracetic acid and agent concentrations per experiment (c1-c3)
Description: 95 g of tap water was added to 5 g of an equilibrated peracetic acid solution containing 4 wt % of peracetic acid, 16 wt % of hydrogen peroxide and 15 wt % of acetic acid, and the resultant mixture was stirred to prepare a uniform aqueous solution. A peracetic acid concentration of the aqueous solution thus prepared was 2,000 ppm.
Each of sterilizing power test sample solutions was prepared by adding a predetermined amount of each of peracetic acid sterilizing power-improving agents shown in the following Table 1 to the peracetic acid aqueous solution prepared in the above paragraph (a) and stirring the mixture.
100 ml of the above prepared test sample solution was placed in an Erlenmeyer flask, and was maintained at 40° C. 1 ml of a chaetomium spore solution having an inoculated bacteria number of 4×10^6 CFU/ml was inoculated therein, and 1 ml of a sample was taken from the Erlenmeyer flask respectively at 10 seconds, 20 seconds, 30 seconds, 60 seconds and 120 seconds after the inoculation. […] Thereafter, a number of live bacteria remaining in each sample optionally diluted was measured in accordance with plate mix-diluting cuture method using a potato dextrose agar medium, and a D value (time (unit: minute) taken to reduce a bacteria number to 1/10) was determined as a standard of sterilizing power. […]

## OCCc1ccccc1 [compound 8]
  D40 (D value: time taken to reduce a bacteria number to 1/10): 238 min

From patent US20030234382A1, “Sterilizing composition and method for sterilizing using the same” (NIPPON PEROXIDE CO., LTD., priority 2002, published 2003)
